Laboratory results: ChEMBL document CHEMBL2401682, “Evaluation of Jatropha isabelli natural products and their synthetic analogs as potential antimalarial therapeutic agents” (Eur J Med Chem, 2013)
≈ marks a conversion by molar mass, not a printed value.

Columns and labels:
Plasmodium falciparum [1] = assay: Antimalarial activity against chloroquine and pyrimethamine-resistant Plasmodium falciparum K1 infected in O-positive erythrocytes assessed as parasite growth inhibition after 72 hrs by DNA staining-based assay; type: functional, organism-based; conditions: K1, 72 h
BJ = assay: Cytotoxicity against human BJ cells after 72 hrs by celltiter-glo assay; type: cell-based
Raji = assay: Cytotoxicity against human Raji cells after 72 hrs by celltiter-glo assay; type: cell-based
[2] = Solubility of the compound; type: physicochemical
HepG2 = assay: Cytotoxicity against human HepG2 cells after 72 hrs by celltiter-glo assay; type: cell-based; conditions: HepG2, 72 h
HEK293 = assay: Cytotoxicity against HEK293 cells after 72 hrs by celltiter-glo assay; type: cell-based; conditions: Homo sapiens, HEK293, 72 h
[3] = Permeability of the compound by PAMPA; type: ADME; conditions: read-out: permeability
Plasmodium falciparum [4] = assay: Antimalarial activity against chloroquine-sensitive Plasmodium falciparum 3D7 infected in O-positive erythrocytes assessed as parasite growth inhibition after 72 hrs by DNA staining-based assay; type: functional, organism-based; conditions: 3D7, 72 h
[5] = Half life in mouse liver microsomes; type: ADME, Microsome
[6] = Solubility of the compound at pH 3 to 7; type: physicochemical; conditions: buffer
[7] = Half life in human plasma; type: ADME, cell-free
[8] = Half life in mouse plasma; type: ADME, cell-free
[9] = Plasma protein binding in human; type: ADME, cell-free; conditions: read-out: PPB (converted)
[10] = Efflux ratio of permeability in human Caco2 cells; type: ADME, cell-based; conditions: Caco-2
[11] = Half life in human liver microsomes; type: ADME, Microsome
[12] = Plasma protein binding in mouse; type: ADME, cell-free; conditions: read-out: PPB (converted)

CC1=C2CC(C)(C)/C(c3ccc(C(F)(F)F)cc3)=C/C(=O)/C(C)=C\C3=C[C@H](C)C[C@]3(O2)C1=O
EC50 (Plasmodium falciparum [1]): 5.88 µM
EC50 (BJ): 26 µM
EC50 (Raji): 26 µM
solubility [2]: 17 µg/mL (≈ 37.2 µM)
EC50 (HepG2): 26 µM
EC50 (HEK293): 26 µM
Papp [3]: 106 ×10⁻⁶ cm/s
EC50 (Plasmodium falciparum [4]): 6.08 µM

CC1=C2CC(C)(C)/C=C/C(=O)/C(C)=C\C3=C[C@H](C)C[C@]3(O2)C1=O [JATROPHONE]
EC50 (Plasmodium falciparum [1]): 5.41 µM
half-life [5]: 5.4 min
EC50 (BJ): 1.93 µM
solubility [6]: 20 µg/mL (≈ 64 µM)
EC50 (Raji): 26 µM
half-life [7]: 7.8 min
EC50 (HepG2): 6.09 µM
half-life [8]: 12.6 min
EC50 (HEK293): 6.09 µM
fraction unbound [9]: 0.26
efflux ratio [10]: 1.5
half-life [11]: 6 min
fraction unbound [12]: 0.26
Papp [3]: 525 ×10⁻⁶ cm/s
EC50 (Plasmodium falciparum [4]): 15 µM
